# Reference: patent US8871787B2, “Stable crystalline salt of (R)-3-fluorophenyl-3,4,5-trifluorobenzylcarbamic acid 1-azabicyclo [2.2.2]oct-3-yl ester” (Laboratorios Salvat, S.A., priority 2007, dated 2014)
# Key:
# [1] = Hygroscopicity study at controlled relative humidity; format: physicochemical; design: mass gain or mass loss: unit not given here
# [2] = Physicochemical stability and hygroscopicity of the salts on storage; details: for physicochemical stability (in words): storage or formulation, room and enhanced temperature, high humidity, aqueous media
# Text: Compound I is also disclosed in WO2004000840. On the other hand, compound I is exemplified as hydrochloride salt in WO2003053966 as an intermediate in the synthesis of other compounds. […] Upon storage or formulation of said known salt, progressive decomposition and concomitantly an increase in the amount and number of impurities was observed. Obviously, this problem is further aggravated under demanding environmental conditions such as light, heat, humidity or acidity.
# It has been particularly difficult to find stable, crystalline forms of (R)-3-fluorophenyl-3,4,5-trifluorobenzylcarbamic acid 1-azabicyclo[2.2.2]oct-3-yl ester. […] Thus, there remains a need for a salt of (R)-3-fluorophenyl-3,4,5-trifluorobenzylcarbamic acid 1-azabicyclo[2.2.2]oct-3-yl ester that forms a crystalline solid that has a desirable morphology, be stable in the presence of water and under conditions of a high relative humidity (above 85%) and can readily be prepared on a large scale.
# [3] = Salt screening of compound I with several acids (aspect of the salt); format: physicochemical; details: free base and acid in hot ethanol, cooled, solvent evaporated
# Procedure: To select the most suitable salt of compound I and minimize the undesirable hygroscopic properties of the hydrochloride, several acids were tested. The free base of compound I was dissolved in hot ethanol, and then acid solution in hot ethanol was added. The mixture was then stirred and heated for 30 min. After cooling to room temperature, the solvent was removed by evaporation. […]
# [4] = Equilibrium solubility of the D-tartrate salt in several solvents at 25° C.; format: physicochemical; details: for solubility: thermodynamic from solid, 25° C., measured as the free base
smiles,measurement,setting,value
"O=C(O)C(O)C(O)C(=O)O.O=C(O[C@H]1CN2CCC1CC2)N(Cc1cc(F)c(F)c(F)c1)c1cccc(F)c1 [D-tartrate salt, D-tartrate salt of (R)-3-fluorophenyl-3,4,5-trifluorobenzylcarbamic acid 1-azabicyclo[2.2.2]oct-3-yl ester]",mass gain or mass loss,"[1]; 12% RH, 4 h",−0.26
same,mass gain or mass loss,"[1]; 12% RH, 8 h",−0.20
same,mass gain or mass loss,"[1]; 12% RH, 14 h",−0.30
same,mass gain or mass loss,"[1]; 12% RH, 48 h",−0.04
same,mass gain or mass loss,"[1]; 12% RH, 96 h",−0.30
same,mass gain or mass loss,"[1]; 12% RH, 144 h",−0.33
same,mass gain or mass loss,"[1]; 12% RH, 168 h",−0.32
same,mass gain or mass loss,"[1]; 12% RH, 192 h",−0.27
same,mass gain or mass loss,"[1]; 12% RH, 216 h",−0.29
same,mass gain or mass loss,"[1]; 12% RH, 240 h",−0.08
same,mass gain or mass loss,"[1]; 22% RH, 4 h",−0.16
same,mass gain or mass loss,"[1]; 22% RH, 8 h",−0.26
same,mass gain or mass loss,"[1]; 22% RH, 14 h",−0.25
same,mass gain or mass loss,"[1]; 22% RH, 48 h",−0.21
same,mass gain or mass loss,"[1]; 22% RH, 96 h",−0.26
same,mass gain or mass loss,"[1]; 22% RH, 144 h",−0.18
same,mass gain or mass loss,"[1]; 22% RH, 168 h",−0.28
same,mass gain or mass loss,"[1]; 22% RH, 192 h",−0.21
same,mass gain or mass loss,"[1]; 22% RH, 216 h",−0.19
same,mass gain or mass loss,"[1]; 22% RH, 240 h",−0.11
same,mass gain or mass loss,"[1]; 33% RH, 4 h",−0.25
same,mass gain or mass loss,"[1]; 33% RH, 8 h",−0.24
same,mass gain or mass loss,"[1]; 33% RH, 14 h",−0.21
same,mass gain or mass loss,"[1]; 33% RH, 48 h",−0.19
same,mass gain or mass loss,"[1]; 33% RH, 96 h",−0.17
same,mass gain or mass loss,"[1]; 33% RH, 144 h",−0.30
same,mass gain or mass loss,"[1]; 33% RH, 168 h",−0.39
same,mass gain or mass loss,"[1]; 33% RH, 192 h",−0.11
same,mass gain or mass loss,"[1]; 33% RH, 216 h",−0.15
same,mass gain or mass loss,"[1]; 33% RH, 240 h",−0.18
same,mass gain or mass loss,"[1]; 43% RH, 4 h",−0.38
same,mass gain or mass loss,"[1]; 43% RH, 8 h",−0.32
same,mass gain or mass loss,"[1]; 43% RH, 14 h",−0.21
same,mass gain or mass loss,"[1]; 43% RH, 48 h",−0.25
same,mass gain or mass loss,"[1]; 43% RH, 96 h",−0.30
same,mass gain or mass loss,"[1]; 43% RH, 144 h",−0.40
same,mass gain or mass loss,"[1]; 43% RH, 168 h",−0.34
same,mass gain or mass loss,"[1]; 43% RH, 192 h",−0.19
same,mass gain or mass loss,"[1]; 43% RH, 216 h",−0.25
same,mass gain or mass loss,"[1]; 43% RH, 240 h",−0.18
same,mass gain or mass loss,"[1]; 53% RH, 4 h",−0.19
same,mass gain or mass loss,"[1]; 53% RH, 8 h",−0.21
same,mass gain or mass loss,"[1]; 53% RH, 14 h",−0.16
same,mass gain or mass loss,"[1]; 53% RH, 48 h",−0.17
same,mass gain or mass loss,"[1]; 53% RH, 96 h",−0.19
same,mass gain or mass loss,"[1]; 53% RH, 144 h",−0.17
same,mass gain or mass loss,"[1]; 53% RH, 168 h",−0.16
same,mass gain or mass loss,"[1]; 53% RH, 192 h",−0.20
same,mass gain or mass loss,"[1]; 53% RH, 216 h",−0.14
same,mass gain or mass loss,"[1]; 53% RH, 240 h",0.00
same,mass gain or mass loss,"[1]; 64% RH, 4 h",−0.08
same,mass gain or mass loss,"[1]; 64% RH, 8 h",−0.07
same,mass gain or mass loss,"[1]; 64% RH, 14 h",−0.07
same,mass gain or mass loss,"[1]; 64% RH, 48 h",0.02
same,mass gain or mass loss,"[1]; 64% RH, 96 h",−0.07
same,mass gain or mass loss,"[1]; 64% RH, 144 h",0.15
same,mass gain or mass loss,"[1]; 64% RH, 168 h",0.15
same,mass gain or mass loss,"[1]; 64% RH, 192 h",0.20
same,mass gain or mass loss,"[1]; 64% RH, 216 h",0.25
same,mass gain or mass loss,"[1]; 64% RH, 240 h",0.59
same,mass gain or mass loss,"[1]; 75% RH, 4 h",−0.08
same,mass gain or mass loss,"[1]; 75% RH, 8 h",0.02
same,mass gain or mass loss,"[1]; 75% RH, 14 h",0.01
same,mass gain or mass loss,"[1]; 75% RH, 48 h",0.06
same,mass gain or mass loss,"[1]; 75% RH, 96 h",−0.06
same,mass gain or mass loss,"[1]; 75% RH, 144 h",−0.08
same,mass gain or mass loss,"[1]; 75% RH, 168 h",−0.05
same,mass gain or mass loss,"[1]; 75% RH, 192 h",0.00
same,mass gain or mass loss,"[1]; 75% RH, 216 h",0.01
same,mass gain or mass loss,"[1]; 75% RH, 240 h",0.29
same,mass gain or mass loss,"[1]; 85% RH, 4 h",0.16
same,mass gain or mass loss,"[1]; 85% RH, 8 h",0.13
same,mass gain or mass loss,"[1]; 85% RH, 14 h",0.22
same,mass gain or mass loss,"[1]; 85% RH, 48 h",0.26
same,mass gain or mass loss,"[1]; 85% RH, 96 h",0.07
same,mass gain or mass loss,"[1]; 85% RH, 144 h",0.24
same,mass gain or mass loss,"[1]; 85% RH, 168 h",0.18
same,mass gain or mass loss,"[1]; 85% RH, 192 h",0.15
same,mass gain or mass loss,"[1]; 85% RH, 216 h",0.23
same,mass gain or mass loss,"[1]; 85% RH, 240 h",0.59
same,mass gain or mass loss (in words),[1]; 93% RH or below,No significant mass gain or mass loss
same,mass gain or mass loss,"[1]; 93% RH, 4 h",0.16
same,mass gain or mass loss,"[1]; 93% RH, 8 h",0.03
same,mass gain or mass loss,"[1]; 93% RH, 14 h",0.24
same,mass gain or mass loss,"[1]; 93% RH, 48 h",0.44
same,mass gain or mass loss,"[1]; 93% RH, 96 h",0.40
same,mass gain or mass loss,"[1]; 93% RH, 144 h",0.43
same,mass gain or mass loss,"[1]; 93% RH, 168 h",0.39
same,mass gain or mass loss,"[1]; 93% RH, 192 h",0.38
same,mass gain or mass loss,"[1]; 93% RH, 216 h",0.43
same,mass gain or mass loss,"[1]; 93% RH, 240 h",0.81
same,water addition (in words),[1]; 97% RH,significant water addition issue
same,mass gain or mass loss,"[1]; 97% RH, 4 h",1.51
same,mass gain or mass loss,"[1]; 97% RH, 8 h",1.06
same,mass gain or mass loss,"[1]; 97% RH, 14 h",4.36
same,mass gain or mass loss,"[1]; 97% RH, 48 h",7.86
same,mass gain or mass loss,"[1]; 97% RH, 96 h",13.77
same,mass gain or mass loss,"[1]; 97% RH, 144 h",23.58
same,mass gain or mass loss,"[1]; 97% RH, 168 h",23.62
same,mass gain or mass loss,"[1]; 97% RH, 192 h",23.06
same,mass gain or mass loss,"[1]; 97% RH, 216 h",22.13
same,mass gain or mass loss,"[1]; 97% RH, 240 h",19.88
same,KF initial,[1]; before the hygroscopicity study,HYGR[…] (KF initial = 0.9692%)
same,hygroscopicity (in words),[2],relatively non-hygroscopic
same,physicochemical stability (in words),[2],more stable than the hydrochloride salt
same,physicochemical stability (in words),[2]; listed as Form I,stable at room temperature
same,Aspect of the salt,[3]; listed as D-Tartaric,White solid crystal precipitated in EtOH.
same,Aspect of the salt,[3]; listed as salt obtained with D-tartaric acid,non-hygroscopic solid crystal
same,solubility,"[4]; aqueous buffer, 0.1N sodium hydroxide",90 µg/mL
same,solubility in water (in words),"[4]; crystalline form, water",highly soluble in water
same,solubility,"[4]; organic solvent or mixture, Dichloromethane",2200 µg/mL
same,solubility,"[4]; organic solvent or mixture, Ethanol",10000 µg/mL
same,solubility,"[4]; organic solvent or mixture, Hexane",300 µg/mL
same,solubility,"[4]; organic solvent or mixture, Isopropyl alcohol",1500 µg/mL
same,solubility,"[4]; organic solvent or mixture, Methanol",258000 µg/mL
same,solubility,"[4]; organic solvent or mixture, n-Octanol",500 µg/mL
same,solubility,"[4]; simulated gastric fluid, 0.1 Hydrochloric acid",367000 µg/mL
same,solubility,[4]; Water,251000 µg/mL
